Experimental data published in patent US20240002424A1, “HEXOSAMINE COMPOUNDS AND METHODS THEREOF” (National Institute of Immunology, priority 2021, published 2024).
Entries after “also recorded” stand apart in the source; their conditions may differ.

Legend:
Type in all cases: cell-based, human
[1] = test system: Jurkat cells; assay: GalNAz expression on the cell surface, co-incubation with Ac4GalNAz (3), DBCO-Cy5 flow cytometry; conditions: 50 μM co-incubated with 3 (50 μM)
Procedure: Effect of ManNAc analogues on NeuAz and GalNAz expression: Jurkat cells were incubated under various conditions, namely, (i) D, 1c, 3, 1a, or 1b alone, (ii) 1a or 1b in combination with 1c, (iii) 1a or 1b in combination with 3. After 24 h, cells were harvested, washed, labelled using DBCO-Cy5 ([…]), processed, and analysed by flow cytometry as mentioned above
The high degree of selectivity of ManNAc analogues for processing by the sialic acid biosynthetic pathway was further confirmed by competitive studies using Ac4GalNAz (3) which is known to be processed through both the mucin-type O-glycosylation (MTOG) and β-O-GlcNAc-ylation pathways. The expression of NeuAz by 1c was suppressed by 1a or 1b (50 μM) to an extent of 50% upon co-incubation. By contrast, no reduction in the expression of N-azidoacetyl-D-galactosamine (GalNAz) on the cell surface was noticed upon co-incubation of 3 (50 μM) with 1a or 1b (50 μM) (FIG. 6E and FIG. 7C).

[2] = test system: HL-60 cells; assay: Anti-CLA (HECA452) antibody binding by flow cytometry; conditions: 50 μM, 24 h
Procedure: Effect of HexNAc analogues on the expression of cutaneous lymphocyte antigen (CLA/HECA452) epitopes: HL-60 cells (3.0×10^5 cells/mL in 2.5 mL complete medium in 6-well plates) were treated with D, 1a, 1b, or 1d (50 mM), including untreated controls. After 24 h cells were harvested, washed in PBS (3×0.5 mL), aliquoted to 5.0×10^5 cells per sample, and incubated with rat anti-human CLA (HECA452) antibody (5.0 mg/mL) in PBS (50 mL) at 4° C. After 1.0 h, cells were washed with PBS (2×0.5 mL) and stained with AlexaFluor488-conjugated anti-rat IgM (10 mg/mL) in PBS (50 mL) at 4° C. After 1.0 h, cells were washed with PBS (2×0.5 mL), resuspended in PBS (0.2 mL) and treated with PI (2.5 mg/mL). Additionally control samples of cells treated with (i) isotype antibody followed by secondary antibody and (ii) only secondary antibody were prepared. Cells were gated on PI-negative population and analyzed by flow cytometry as given above. Two replicate samples were analyzed for each condition and each sample was counted twice by flow cytometry as mentioned above.

[3] = test system: HL-60 cells; assay: Western blot of total lysates for sLeX (CSLEX1) epitopes; conditions: HL-60 total lysates; 50 μM, 72 h
Procedure: Effect of ManNAc analogues on expression of CD15s epitopes: HL-60 cells (3.0×10^5 cells/mL in 10 mL complete medium in 10 cm diameter petri dishes) were incubated with D, 1a, 1b, 1d, 1e, 1f, or 1g (50 mM), along with untreated (U) controls. After 72 h, cells were harvested, washed with PBS (3×5.0 mL), and lysed in RIPA buffer (10^7 cells in […]), containing protease inhibitor cocktail (PIC, 1:100). Protein concentration of the soluble fraction was estimated using the Bradford assay. Proteins from total lysates were resolved by 7.5% SDS-PAGE and blotted onto nitrocellulose membrane (constant current of 250 mA for 3.0 h at 4° C.). Membranes were blocked using non-fat milk (NFM) (5.0% w/v) in PBS and incubated with primary antibodies (5.0 mL PBS containing 5.0% NFM) overnight at 4° C. Membranes were washed with 0.1% PBS-T (0.1% v/v tween-20 in PBS; 3×5.0 mL, five min each at room temperature) followed by incubation with appropriate fluorophore or horse radish peroxidase (HRP) conjugated secondary antibodies for 1.0 h at room temperature. Membranes were washed with 0.1% PBS-T (3×5.0 mL, five min each) and then either directly scanned using Amersham Typhoon fluorescence scanner or developed on photographic films after treatment with enhanced chemiluminescence reagents. At least two independent replicate experiments were performed for all the blots.
The primary and secondary antibodies employed, along with dilution and stock concentration, are given below: Primary antibodies: Anti-CD15s (CSLEX1; IgM, dilution 1:5000; stock concentration 0.5 mg/mL) Anti-CLA (HECA452; IgM, dilution 1:1000, stock concentration 0.5 mg/mL) […] (AC15, IgG, dilution 1:20000, stock concentration 2.2 mg/mL); and Secondary Antibodies: AlexaFluor488-conjugated anti-mouse IgM (1:10000, stock concentration 2.0 mg/mL) AlexaFluor488-conjugated anti-rat IgM (1:10000, stock concentration 0.5 mg/mL) HRP-conjugated anti-mouse IgG (1:10000, stock concentration 0.8 mg/mL) Cy5-conjugated donkey anti-mouse IgG (1:10000, stock concentration 1.4 mg/mL) AlexaFluorplus488-conjugated anti-mouse IgG (1:10000, stock conc. 2.0 mg/mL).

[4] = test system: Jurkat cells; assay: NeuAz expression on the cell surface by SPAAC with DBCO-Cy5 and flow cytometry, competition with Ac4ManNAz (1c); conditions: analogue 10 μM first, 1c 50 μM added at 12 h, estimation at 48 h
[5] = test system: HL-60 cells; assay: MAL-II lectin binding on intact cells by flow cytometry; conditions: 50 μM, 24 h
[6] = test system: HL-60 cells; assay: Cell surface sialyl-Lewis-X (CD15s) by anti-CD15s (CSLEX1) flow cytometry

SMILES	reduction in expression of GalNAz on the cell surface [1]	decrease in HECA-452 binding compared to untreated cells [2] [%]	sLeX (CSLEX1) bands between 150-100 kDa in western blot [3]	suppression of NeuAz expression, delayed addition of 1c [4] [%]	MAL-II binding on intact cells compared to untreated cells [5]	maximum increase in sLeX levels on day 2 ([6]; single dosage 50 μM, day 2) [fold]	sLeX levels by day 6 (in words) ([6]; single dosage 50 μM, day 6)	sLeX levels on day 6, fold higher ([6]; single dosage 50 μM, day 6)	day of peak sLeX expression ([6]; single dosage 50 μM, time course day 1 to day 6) [days]	change in HECA-452 binding (in words) [2]	change in sLeX levels in time course (in words) ([6]; 50 μM, time course)
CC(=O)OC[C@H]1O[C@H](OC(C)=O)[C@@H](NC(=O)C2CC2)[C@@H](OC(C)=O)[C@@H]1OC(C)=O [Compound 1a, 1,3,4,6-tetra-O-acetyl-2-cyclopropanoylamino-2-deoxy-α-D-mannopyranose]	no reduction	40	faint increase	30	significant gain						
CC(=O)OC[C@H]1OC(OC(C)=O)[C@@H](NC(=O)C2CCC2)[C@@H](OC(C)=O)[C@@H]1OC(C)=O (stereo partly drawn) [Compound 1b, (3S,4R,5S,6R)-6-(acetoxymethyl)-3-(cyclobutanecarboxamido)tetrahydro-2H-pyran-2,4,5-triyl triacetate]	no reduction	40	Robust increase	50	significant gain	3.0	returned to normal levels	approximately 2.3 fold	2		
CC(=O)NC1C(OC(C)=O)OC(COC(C)=O)[C@@H](OC(C)=O)[C@@H]1OC(C)=O (stereo partly drawn) [Compound 1d, 1,3,4,6-tetra-O-acetyl-2-acetylamino-2-deoxy-α/β-D-mannopyranose]			negative for sLeX epitopes; also recorded: not detectable							moderate increase	no change
